# Test results from patent publication US7521065B2, “Compositions for the treatment and prevention of cancer” (priority 2001, dated 2009).
# Key:
# [1] = system: lesion diagnosed as precancerous; test: Impregnated adhesive bandage on precancerous lesion, case report Example IV; assay type: in vivo, human; conditions: adhesive bandage impregnated with compound; person
# Excerpt: A person developed a lesion diagnosed as precancerous on the upper part of their back.
# [2] = system: metastatic cutaneous and subcutaneous lesions and affected lymph nodes (breast cancer); test: Topical treatment of breast cancer metastases, case report Example VI; assay type: in vivo, human
# Excerpt: In May 1998 a tumor was diagnosed in the left breast of a […] which had been treated for cancer of the right breast in 1974 by mastectomy, axillar resection, chemotherapy with cytoxan, metothrexate and 5-fluorouracil, and ovariectomy. In May 1999 they presented with numerous skin metastases on their upper torso and lymph node involvement. The patient underwent various therapies in Europe, which included chemotherapy, immunotherapy and hyperthermia, but numerous metastatic cutaneous and subcutaneous metastatic lesions remained on their chest, in the mastectomy scar, in the left axilla and on their back. […] As a precaution they are applying a lotion containing 0.2% solution of di-n-hexyl diselenide in jojoba oil onto areas of their skin once every two weeks.
# [3] = system: normal embryonic liver or lung cells; conditions: added to the growth media; cited from earlier work
# [4] = system: high nuclear grade intraductal carcinoma of the right breast; test: Topical treatment of breast carcinoma, case report Example VII; assay type: in vivo, human
# Excerpt: A person was diagnosed in July 1999 with a high nuclear grade intraductal carcinoma of the right breast. The tumor consisted of a hard mass in the lower left quadrant of the right breast of 3 cm diameter. In November 1999, a 6% di n-hexyl diselenide in a 1:1 mixture of n-decane and jojoba oil was applied onto the affected breast once per day. […] Status Jan. […] Status April 2001: Unchanged.
# [5] = system: inoperable cancer of the rectum; test: Suppository treatment of rectal cancer, case report Example VIII; assay type: in vivo, human; conditions: suppositories containing 2% in cocoa butter, daily for 4 weeks
# Procedure: A person was diagnosed with inoperable cancer of the rectum in 1998 and was offered radiation therapy, which they refused. A colostomy was performed in the fall of 1998. They applied suppositories containing 2% di-n-hexyl diselenide in cocoa butter daily into their rectum for a period of 4 weeks.
# [6] = system: small lump on breast; test: Cream applied onto breasts, case report Example V; assay type: in vivo, human; conditions: 0.2% in moisturizing cream, once a week; person
# Excerpt: A person with a small lump on their breast was told that they were at risk of developing breast cancer. They applied onto their breasts once a week a cream containing 0.2% di-n-hexyl diselenide in a moisturizing cream of conventional composition. […] They presently continue to apply the selenium composition once a week as a precautionary measure.
# [7] = system: irregular melanotic spot on right hand; test: Topical treatment of a melanotic spot, case report Example II; assay type: in vivo, human; conditions: 10% solution in 1:1 n-decane/n-dodecane, once every day for one week, person
# Excerpt: A subject presented with a small irregular melanotic spot of approximately 3 mm diameter on their right hand which the subject had since birth but which in recent years had increased in size and became unsymmetrical. […] New skin growing over the lesion closed it without a scar.
# [8] = Excerpt: The therapeutic efficacy of the dialkyl diselenides of these compositions depends on (1) the length of the alkyl residue R, and (2) the composition of the inert carrier as these determine the degree to which they can penetrate through the skin. […] Increasing the average alkyl chain length beyond n-hexyl causes them to become less skin penetrating and more suitable for the treatment of superficial cancerous lesions. Shortening the chain length below n-hexyl increases the volatility of these compounds. This reduces their therapeutic efficacy as it causes them to evaporate when brought onto the skin.
# Selection of the appropriate alkyl residues R in these compounds is important as it determines their ability to penetrate the skin. Preferred are dialkyl diselenides with linear, medium-length straight alkyl residues of at least 6 and not exceeding 8 carbon atoms.
# [9] = system: skin lesion with all characteristics of a superficially spreading melanoma; test: Topical treatment of a skin lesion, case report Example I; assay type: in vivo, human; conditions: 10% solution in n-decane, twice a day for 3 days, person, lesion 0.8 cm
# Excerpt: A subject presented with a skin lesion of 0.8 cm diameter on their right upper chest.
# [10] = system: several human cancer cell lines; conditions: cell cultures; cited from earlier work
# [11] = system: squamous carcinoma on nose; test: Topical cream treatment of squamous carcinoma, case report Example III; assay type: in vivo, human; conditions: cream containing 6%, twice per day for 5 days; person
structure (smiles),measurement,setting,value
CCCCCCCC[Se][Se]CCCCCCCC [di-n-octyl diselenide],outcome of precancerous lesion,[1],caused the lesion to dry out and drop off without a scar within 3 weeks
CCCCCC[SeH] [n-hexyl selenol],outcome of recurrences on chest and metastases on back,[2]; 10% solution in n-decane,effectively controlled
same,follow-up after treatment of recurrences,[2]; after 10% solution in n-decane,remained free of obvious signs of cancer for one year
O=[Se](O)O [sodium selenite],effect on normal cells,[3],without affecting
CCCCCC[Se][Se]CCCCCC [di-n-hexyl diselenide],outcome of breast mass,"[4]; 6% in 1:1 n-decane/jojoba oil, once per day, breast mass 3 cm diameter",Over a period of 4 weeks the breast mass shrunk and ultimately disappeared
same,status by ultrasonic examination,"[4]; Status Jan. 8, 2000, unchanged April 2001",No breast mass detectable
same,patient status during the following 2 years,[5],"their status has remained stable, they gained weight, and was able to work"
same,tumor mass by X-ray and sonographic examinations,[5],the tumor mass had ceased to grow
same,outcome of breast lump,[6],lump in their breast disappeared over a period of two months
same,outcome of melanotic spot,[7],caused the affected skin to turn brittle and to fall off
same,skin penetration properties,[8],excellent skin penetration properties
same,outcome of metastatic lesions and affected lymph nodes,[2]; 5% in n-decane,caused their disappearance within two weeks
same,follow-up after treatment,[2]; after 5% in n-decane,remained free of cancer for two years
same,outcome of skin lesion,[9],caused a layer of dead cells to be formed which dropped off after 4 days without leaving a scar
CCCCCCC[Se][Se]CCCCCCC [di-n-heptyl diselenide],growth of cancer cell lines,[10],inhibit the growth
same,outcome of squamous carcinoma lesion,[11],disappearance of the lesion
